From US20230172966A1, “COMPOSITION FOR THE PREVENTION AND TREATMENT OF FOLATE AND/OR VITAMIN B12 DEFICIENCY CONDITIONS, PARTICULARLY HYPERHOMOCYSTEINEMIA” (INPHA RESEARCH S.R.L., priority 2020, published 2023)

Tests used:
[1] = Gastric Simulated Fluid (GSF) Test; type: physicochemical
Method: Gastric Simulated Fluid (GSF) Test.
For all the experiments, physiological gastric conditions were reproduced taking into account the volume of gastric fluid on an empty stomach (35-40 mL) (Mudie D M et al. Quantification of gastrointestinal liquid volumes and distribution following a 240 mL dose of water in the fasted state. Mol Pharm. 2014 Sep. 2; 11(9):3039-47) and the fact that in the stomach, the salt concentration is different from that of blood plasma (0.25% vs 0.9%) (Sandra Klein. The Use of Biorelevant Dissolution Media to Forecast the In Vivo Performance of a Drug. AAPS J. 2010 September; 12(3): 397-406).
The effect of the alkalizing agent on gastric pH was simulated in vitro by preparing a 0.2% saline solution of NaCl and bringing the pH of the solution to around 1.2-2 with 37% hydrochloric acid diluted 1:5.
GSF was prepared using the components in table 1, all tests were performed simulating body temperature (37° C.) and performed in triplicate.
400 ml of GSF was stirred with magnetic stirrer and settled at 37° C. and the three-point digital pH meter was applied. 40 mg of Folic Acid was added to this solution.
The bright orange dispersion was stirred for 5 minutes at 200 rpm and then the stirring was stopped.
The same experiment was repeated adding 30 mg of Zinc Oxide to the same amount of folic acid. […] Such a pH was maintained in the range 5.0-5.5 also by simulating physiological acid secretion, combining 2 ml of 0.1 M HCl every 15 minutes for a total of 60 minutes.

[2] = non-ionized carboxylic acid form, in contact with gastric fluid (pH 1.5-2.0 empty, 3.5-4.5 full stomach); cited from earlier work

observation of folic acid solubility/precipitation in GSF ([1]; 40 mg Folic Acid alone in 400 ml GSF pH 1.2-2, 37° C., stirred 5 minutes at 200 rpm, observed after 10 minutes)	Compound	pH recorded in GSF after stirring ([1]; 30 mg Zinc Oxide + 40 mg folic acid in 400 ml GSF (initial pH 1.2-2), 37° C., after 5 minutes at 200 rpm)	pH maintained under simulated physiological acid secretion ([1]; 30 mg Zinc Oxide + 40 mg folic acid in 400 ml GSF, 2 ml of 0.1 M HCl every 15 minutes for a total of 60 minutes)	observation of folic acid dissolution in GSF with Zinc Oxide ([1]; 40 mg folic acid + 30 mg Zinc Oxide in 400 ml GSF, 37° C., stirred 5 minutes at 200 rpm)	water solubility [2] [µg/mL]
–	[O]=[Zn] [Zinc Oxide]	5.2	5.0-5.5	–	–
complete precipitation	Nc1nc2ncc(CNc3ccc(C(=O)N[C@@H](CCC(=O)O)C(=O)O)cc3)nc2c(=O)[nH]1 [folic acid, pteroyl(mono)-glutamic acid]	–	–	translucent orange solution in the absence of precipitation	< 10
